From US6683055B1, “Low molecular weight inhibitors of complement proteases” (BASF Aktiengesellschaft, priority 1999, dated 2004)
Structures can show the parent of a compound that is named as a salt.

Key:
Type in all cases: biochemical
factor D = molecular target: T1, factor D (Homo sapiens, UniProt P00746); experiment: Inhibition of the protease factor D (Example D); details: substrate Z-Lys-SBzl, run along as inhibitor in the test
T1 construct: purchased Calbiochem 341273
From the text: Example D Testing of Inhibitors for Inhibition of the Protease Factor D In the alternative route of the complement system, factor D performs a central function. Owing to the low plasma concentration of factor D, the enzymatic step involving the cleavage of factor B by factor D constitutes the rate-determining step in the alternative route of complement activation. Owing to the limiting role which this enzyme plays in the alternative route, factor D is a target for the inhibition of the complement system. The commercial substrate Z-Lys-SBzl*HCl is converted by the enzyme factor D (literature: Kam, C. M. et al., J. Biol. Chem. 262, 1987, 3444-3451). The detection of the cleaved substrate is effected by reaction with Ellmann's reagent. The product formed is detected spectrophotometrically. The reaction can be monitored online. This permits measurements of enzyme kinetics. [table] The batches are pipetted together into microtiter plates. After mixing of buffer, substrate and Ellmann's reagent (possibly inhibitors), the enzyme reaction is started by adding in each case 5 μl of factor D. Incubation takes place at room temperature for 60 minutes. Measurement at 405 nm for 1 hour at 3 minute intervals The result is plotted graphically. […]

[1] = molecular target: T2, C1s from human plasma, activated, two-chain form (Homo sapiens, UniProt P09871); experiment: Color substrate test for C1s inhibition (Example B); details: amidolytic C1s activity, substrate Cbz-Gly-Arg-S-Bzl; read-out: C1S IC50 according to Example B
T2 construct: from tissue; host or cells: human plasma
T2 sequence (P09871 16-437 partner limits assumed): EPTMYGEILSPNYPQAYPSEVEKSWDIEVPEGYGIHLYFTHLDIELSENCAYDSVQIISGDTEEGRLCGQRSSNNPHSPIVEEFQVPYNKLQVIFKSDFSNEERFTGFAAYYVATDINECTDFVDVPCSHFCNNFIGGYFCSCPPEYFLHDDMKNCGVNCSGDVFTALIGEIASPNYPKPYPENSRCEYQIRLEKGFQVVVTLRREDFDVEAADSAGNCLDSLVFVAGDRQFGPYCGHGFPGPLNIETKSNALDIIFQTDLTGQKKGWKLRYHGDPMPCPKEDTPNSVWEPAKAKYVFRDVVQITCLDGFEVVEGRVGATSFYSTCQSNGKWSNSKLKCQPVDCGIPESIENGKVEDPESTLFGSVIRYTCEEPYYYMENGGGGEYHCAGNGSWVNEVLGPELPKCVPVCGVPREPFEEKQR
T2 sequence (P09871 438-688 limits assumed): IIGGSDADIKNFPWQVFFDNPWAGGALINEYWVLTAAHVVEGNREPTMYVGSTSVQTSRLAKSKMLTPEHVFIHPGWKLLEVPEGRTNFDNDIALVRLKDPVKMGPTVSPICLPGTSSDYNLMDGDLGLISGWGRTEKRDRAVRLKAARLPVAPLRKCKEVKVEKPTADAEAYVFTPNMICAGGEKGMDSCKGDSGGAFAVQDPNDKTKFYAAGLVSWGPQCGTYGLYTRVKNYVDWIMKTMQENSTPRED
From the text: Material and Methods: Color Subrate Test for C1s Inhibition

[2] = molecular target: T3, C1r from human plasma, activated, two-chain form (Homo sapiens, UniProt P00736); experiment: Color substrate test for C1r inhibition (Example A); details: amidolytic C1r activity, substrate Cbz-Gly-Arg-S-Bzl; read-out: C1R IC50 according to Example A
T3 construct: from tissue; host or cells: human plasma
T3 sequence (P00736 18-463 partner limits assumed): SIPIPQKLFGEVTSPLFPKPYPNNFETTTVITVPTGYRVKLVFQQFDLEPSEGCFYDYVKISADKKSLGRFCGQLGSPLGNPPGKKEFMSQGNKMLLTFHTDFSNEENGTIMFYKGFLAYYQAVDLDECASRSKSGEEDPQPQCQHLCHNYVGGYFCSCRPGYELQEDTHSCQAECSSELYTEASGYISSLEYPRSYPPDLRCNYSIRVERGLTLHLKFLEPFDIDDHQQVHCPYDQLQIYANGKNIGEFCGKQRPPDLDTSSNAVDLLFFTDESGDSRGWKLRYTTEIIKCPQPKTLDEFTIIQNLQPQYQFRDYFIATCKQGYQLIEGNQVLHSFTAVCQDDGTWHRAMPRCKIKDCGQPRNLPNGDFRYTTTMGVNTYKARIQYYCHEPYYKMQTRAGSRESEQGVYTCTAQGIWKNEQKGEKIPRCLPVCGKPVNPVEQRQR
T3 sequence (P00736 464-705 limits assumed): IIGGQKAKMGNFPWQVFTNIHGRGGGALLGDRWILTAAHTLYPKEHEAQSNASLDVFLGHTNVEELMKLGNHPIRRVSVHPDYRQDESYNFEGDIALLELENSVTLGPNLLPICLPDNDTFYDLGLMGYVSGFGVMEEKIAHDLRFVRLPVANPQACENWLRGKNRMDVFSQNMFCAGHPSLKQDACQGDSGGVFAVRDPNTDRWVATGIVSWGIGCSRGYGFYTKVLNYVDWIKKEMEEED
From the text: Color Substrate Test for C1r Inhibition

T1 sequence (P00746 26-253): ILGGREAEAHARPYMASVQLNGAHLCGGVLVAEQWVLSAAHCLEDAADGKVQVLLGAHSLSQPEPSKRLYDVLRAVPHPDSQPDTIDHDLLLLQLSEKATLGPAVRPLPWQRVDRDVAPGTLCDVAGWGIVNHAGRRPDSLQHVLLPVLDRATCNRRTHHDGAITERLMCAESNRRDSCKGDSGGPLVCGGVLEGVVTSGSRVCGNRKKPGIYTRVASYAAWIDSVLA

| Molecule | inhibition of factor D (factor D) | IC50 [1] | IC50 [2] |
| --- | --- | --- | --- |
| N=C(N)c1ccc2cc(OC(=O)c3ccc(N=C(N)N)cc3)ccc2c1 [FUT-175] | effective inhibitor |  |  |
| N=C(N)c1csc(CNC(=O)[C@@H]2CCCN2C(=O)[C@H](NCC(=O)O)C2CCCCC2)c1 [Example 43, HOOC—CH2-(D)Chg-Pro-NH—CH2-5-(3-am).thioph.2HCl] |  | 10 µM | 6 µM |
| N=C(N)c1ccc(CNC(=O)[C@@H]2C=CCN2C(=O)[C@H](NCC(=O)O)C2CCCCC2)s1 [Example 29, HOOC—CH2-(D)Chg-Pyr-NH-CH2-5-(2-am)-thioph.CH3COOH] |  | 0.6 µM | 0.9 µM |
| CS(=O)(=O)N[C@@H](C(=O)N1CCC[C@H]1C(=O)NCc1ccc(C(=N)N)nc1)C1CCCCC1 [Example 14, CH3—SO2-(D)Chg-Pro-NH-3-(6-am)-pico.CH3COOH] |  | 20 µM | > 100 µM |
| 2-C6H10—CH2-Gly-Pro-NH-p-amb.2HCl [Example 7] |  | 4 µM | > 100 µM |
| CC1CCN[C@@H](C(=O)N2CCC[C@H]2C(=O)NCc2ccc(C(=N)N)cc2)C1 (stereo partly drawn) [Example 10, (D)(4-Me)Pic-Pro-NH-p-amb.2CH3COOH] |  | 20 µM | > 100 µM |
| CC(C)(C)OC(=O)Nc1ccc(CS(=O)(=O)N[C@@H](C(=O)N2CC=C[C@H]2C(=O)NCc2ccc(C(=N)N)nc2)C2CCCCC2)cc1 [Example 22, Boc-NH-p-C6H4—CH2—SO2-(D)Chg-Pyr-NH-3-(6-am)-pico.CH3COOH] |  | 0.6 µM | 0.9 µM |
| HOOC—CH2-(D,L)Cpg-Pyr-NH—CH2-5-(3-Me-3-am)-thioph.CH3COOH [Example 52] |  | 4 µM | 10 µM |
| Cc1c(C(=N)N)csc1CNC(=O)[C@@H]1C=CCN1C(=O)[C@H](NCC(=O)O)C1CCCCC1 [Example 51, HOOC—CH2-(D)Chg-Pyr-NH—CH2-5-(4-Me-3-am)-thioph.CH3COOH] |  | 3 µM | 40 µM |
| COC(=O)CS(=O)(=O)N[C@@H](C(=O)N1CCC[C@H]1C(=O)NCc1ccc(C(=N)N)nc1)C1CCCCC1 [Example 17, CH3OOC—CH2—SO2-(D)Chg-Pro-NH-3-(6-am)-pico.CH3COOH] |  | 4 µM | 40 µM |
| N=C(N)c1coc(CNC(=O)[C@@H]2CCCN2C(=O)[C@@H](CC2CCCCC2)NCC(=O)O)c1 [Example 34, HOOC—CH2-(D)Cha-Pro-NH—CH2-5-(3-am)-fur.CH3COOH] |  | 20 µM | 70 µM |
| N=C(N)c1csc(CNC(=O)[C@@H]2C=CCN2C(=O)[C@@H](CC2CCCCC2)NCC(=O)O)c1 [Example 38, HOOC—CH2-(D)Cha-Pyr-NH—CH2-5-(3-am)-thioph.CH3COOH] |  | 5 µM | 10 µM |
| N=C(N)c1ccc(CNC(=O)[C@@H]2C=CCN2C(=O)C(CCC2CCCCC2)NCC(=O)O)cn1 (stereo partly drawn) [Example 19, HOOC—CH2-HCha-Pyr-NH-3-(6-am)-pico] |  | 30 µM | 30 µM |
| N=C(N)c1ccc(CNC(=O)[C@@H]2CCCN2C(=O)[C@H](NCCCCC(=O)O)C2CCCCC2)cn1 [Example 26, HOOC—(CH2 )4-(D)Chg-Pro-NH-3-(6-am)-pico.CH3COOH] |  | 2 µM | > 100 µM |
| N=C(N)c1ccc(CNC(=O)[C@@H]2C=CCN2C(=O)[C@H](NS(=O)(=O)Cc2ccc(N)cc2)C2CCCCC2)cn1 [Example 23, H2N-p-C6H4—CH2—SO2-(D)Chg-Pyr-NH-CH2-3-(6-am)-pico.HCl] |  | 0.8 µM | 0.5 µM |
| CC(C)(C)OC(=O)Nc1ccc(CS(=O)(=O)N[C@H](CC2CCCCC2)C(=O)N2CC=C[C@H]2C(=O)NCc2ccc(C(=N)N)nc2)cc1 [Example 20, Boc-NH-p-C6H4CH2—SO2-(D)Cha-Pyr-NH-3-(6-am)-pico-CH3COOH] |  | 2 µM | 0.6 µM |
| N=C(N)c1ccc(CNC(=O)[C@@H]2CCCN2C(=O)CNC(=O)CCc2ccccc2)cc1 [Example 8, C6H5—CH2—CH2—CO-Gly-Pro-NH-p-amb.HI] |  | 6 µM | > 100 µM |
| N=C(N)c1ccc(CNC(=O)[C@@H]2CSCN2C(=O)[C@@H](CC2CCCCC2)NCC(=O)O)s1 [Example 33, HOOC—CH2-(D)Cha-Thz-4-CO—NH—CH2-5-(2-am)-thioph.2HCl] |  | 40 µM | 40 µM |
